Bounds are passed on as bounds.

Test [1] concerns the target ERRα ligand binding domain (ERRα-LBD) (Homo sapiens (Human), UniProt P11474). The test can be described thus: ERRα AlphaScreen Assay. In kind it is biochemical. Conditions: disruption of binding of ERRα-LBD protein to biotin-PGC1α-3 co-activator peptide. Put shortly: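 Disruption of co-activator binding read by AlphaScreen: compounds in triplicate, 1% DMSO, Tris pH 7.5 buffer, room temperature. Bacterially expressed 6His-SUMO-ERRα-LBD at 0.81 nM with beads for 1 h, then 15 nM biotinylated PGC1α peptide for 2 h. IC50 from four-parameter fits, averaged as pIC50.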

In a further test the target is full length ERRα (Homo sapiens (Human), UniProt P11474). The test can be described thus: Full Length ERRα Reporter Gene Assay. In kind it is cell-based. Conditions: SK-BR-3 cells, ERRα-RE luciferase reporter, overnight incubation; read-out: mean pIC50 (converted). The text has this:
Full Length ERRα Reporter Gene Assay
A method was established to quantitatively screen the potency of compounds with inverse agonistic activity on the nuclear receptor ERRα of the human species. The assay allows intra-cellular screening of ERRα inverse agonists in SK-BR-3 cells using an over-expression construct coding full length ERRα and a reporter construct containing an ERRα Response Element (RE) and a luciferase gene for read out. The activity is expressed in log IC50 values and can be used to determine SAR of compound families or to de-select compounds.
In this assay, reporter cells are obtained by transient co-transfection of two constructs in SK-BR-3 cells using standard transfection techniques. The first construct contains a response element of the nuclear receptor ERRα (Plasmid pLP2175, Reporter construct ERRα-RE/luc2P, cloned variant of ERRα_v2_synthRE, Switchgear Genomics, Catalog Number S900089). This sequence drives the transcription of the luciferase reporter gene in response to binding of an ERRα protein encoded by the second construct (Plasmid pLP2124: full length ERRα expression construct using pcDNA3.1/Hygro(+) as background, Invitrogen Catalog Number V87020).
The day after transfection, cells were plated into 96 well plates, test compound was added and the plates were incubated overnight. Subsequently, the firefly luciferase activity was quantified using luciferase detection reagent and luminescence readout.
Detailed Assay Description
Transfection is performed on pre-seeded SK-BR-3 cells in a T175 flask. One transfected T175 flask is sufficient for seeding 3 to 4 MW96 plates the next day, depending on the confluency of the transfected cells.
Two different media are used in this protocol for cell treatment: 1) Culture medium, i.e. McCoy's 5a with phenol red (BioWhittaker Supplier Number 12-688F), 10% FBS and 1× Penstrep.; and, 2) Assay medium, i.e. McCoy's 5a Medium phenol red free (HyClone Product Code SH30270.01) with 2% Charcoal Stripped FBS and 1× Penstrep. Compound dilutions are prepared in assay medium.
Cells are seeded at least 2 days in advance to allow the cells to adhere well to flask before transfection. Cells should be 50-80% confluent at the day of transfection.
SKBR3 cells were transfected with the transcriptional reporter construct pLP2175 and the ERRα expression construct pLP2124 (as described above).
68 μL of Lipofectamine LTX transfection reagent (Invitrogen Catalog Number 15338-100) was added dropwise to 8.9 ml Opti-MEM I Reduced Serum Medium (Gibco Catalog Number 51985-026) and incubated at room temperature for 5 to 20 minutes. 8.9 ml of this reagent mixture was added to 22 μg pLP2175+22 μg pLP2124 (ratio 1:1 and total volume 10 ml), and incubated at room temperature for 25 minutes.
10 minutes before adding the transfection mix to SKBR3 cells in a T175 flask, the culture medium was refreshed with 20 mL culture medium. Subsequently, the 10 mL DNA-Opti-MEM-Lipofectamine mixture was gently added to the cells, followed by overnight (16-24 hours) incubation at 37° C. and 5% CO2.
To harvest SKBR3 cells from a T175 flask, first the medium was removed. Subsequently, cells were washed with Phosphate Buffered Saline (PBS) (Lonza), after which the PBS was removed. To dissociate the cells, 2 ml of TrypLE Express (Invitrogen) was added to the flask, followed by incubation at 37° C. for 5 minutes. The flask was tapped until cells were detached from the bottom. Cells were collected in 8 mL of culture medium (McCoy's 5α, 10% FBS, penstrep), to achieve a single cell suspension. After cell count, cells were spun down for 5 minutes at 300 g. Next cell pellets were re-suspended to 25000 cells/80 μl assay medium (McCoy's 5a phenol red free, 2% charcoal stripped FBS, penstrep).
For compound screening, the cells were harvested (as described above). 80 μL of cell suspension (25,000 cells) was plated per well into a white, flat bottom, tissue culture treated, 96 well screening plates (Greiner). […]

The subject of a further test is B16F10 melanoma. The test can be described thus: B16F10 Melanoma Syngeneic Mouse Model. In kind it is in vivo. As to conditions: 30 mpk p.o., q.d., C57BL/6 mice; for Tumor Growth Inhibition (%): Day 13. On the procedure: B16F10 Melanoma Syngeneic Mouse Model
Examples inhibitors 100, 191, 192, 194 and 196 were tested for their ability to inhibit tumor growth in a B16F10 melanoma syngeneic mouse model.
Cell line and tumor model: B16F10 melanoma cell line derived allograft model in C57BL/6 mice.
Mouse B16F10 melanoma cells were sourced from American Type Culture Collection (ATCC), USA. Cells were grown in DMEM (Invitrogen, Catalogue No. 31600-034) supplemented with 10% FBS (Invitrogen, Catalogue No. 10438-026), and 1% penicillin streptomycin (Thermo Fisher Scientific, Catalogue No. 15140-122). To establish allografts, the cells were harvested by trypsinization when they reach around 70 to 80% confluence and 0.1 million B16F10 cells were suspended in 50 μl of serum free medium and mixed at 1:1 ratio with matrigel before implanting subcutaneously into the dorsal right flank of mice using a 1 mL BD syringe attached to a 24-gauge needle.
B16F10 tumor grafts were measured after 5 days of cell inoculation once they became palpable. When the average tumor volume reached around 58 mm^3, animals were dosed after randomization into different treatment groups keeping tumor volume and number of animals in such a way so that the average tumor volume of each group remained same across the groups. Dosing was performed on a per kilogram weight basis, by mouth (per os, p.o.) once a day (quaque die, q.d).
Tumor dimensions—length (I) and breadth (b)—were measured by caliper on the day of animal randomization based on tumor volume (Day 1) and thrice weekly thereafter until study termination. Tumor volumes were calculated using the formula b^2*I*0.52 where l=length, b=breadth (Dusan Djokovic et al., BMC Cancer, 2010, 10:641). Tumor growth inhibition was calculated after normalizing the tumor volume on a given day to that on Day 1.
Test items administration was started when tumor volume reached an average of 58 mm^3.
Administration of test items was carried out until Day 14 and measurement of tumor volume was carried out until Day 13 for computing percent tumor growth inhibition (TGI).

Chain of full length ERRα (P11474 whole entry): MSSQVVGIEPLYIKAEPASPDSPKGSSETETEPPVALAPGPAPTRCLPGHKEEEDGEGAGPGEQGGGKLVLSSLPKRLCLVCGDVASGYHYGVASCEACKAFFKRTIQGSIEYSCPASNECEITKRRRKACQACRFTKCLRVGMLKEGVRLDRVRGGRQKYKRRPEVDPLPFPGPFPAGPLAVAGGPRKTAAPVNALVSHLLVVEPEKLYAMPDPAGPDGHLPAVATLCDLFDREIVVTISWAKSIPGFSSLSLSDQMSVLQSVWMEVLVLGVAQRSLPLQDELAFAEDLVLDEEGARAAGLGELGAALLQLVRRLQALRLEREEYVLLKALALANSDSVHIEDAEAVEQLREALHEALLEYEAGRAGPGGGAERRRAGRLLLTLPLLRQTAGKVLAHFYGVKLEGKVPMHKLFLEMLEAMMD
Chain of ERRα ligand binding domain (ERRα-LBD) (P11474 193-421): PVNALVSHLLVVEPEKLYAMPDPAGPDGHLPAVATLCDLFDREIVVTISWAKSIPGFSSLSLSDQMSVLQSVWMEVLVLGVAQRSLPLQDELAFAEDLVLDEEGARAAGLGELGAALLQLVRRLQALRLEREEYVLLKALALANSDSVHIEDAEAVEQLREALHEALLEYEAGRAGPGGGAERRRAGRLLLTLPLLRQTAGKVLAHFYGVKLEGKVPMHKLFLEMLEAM

As to `COc1cc(C2CC(=O)Nc3n[nH]cc32)ccc1COc1ccc(Cl)cc1C(F)(F)F` (single isomer, unassigned; (-)) [Example 194, (−)-4-(4-{[4-chloro-2-(trifluoromethyl)phenoxy]methyl}-3-methoxyphenyl)-2H,4H,5H,6H,7H-pyrazolo[3,4-b]pyridin-6-one], the “mean pIC50” value in test [1] is recorded as not below 8. Further, the IC50 at full length ERRα is not above 316 nM. In addition, in the test with B16F10 melanoma, the “Tumor Volume (mm^3) Day 13” value stood at 870 ± 152 mm^3 and the “Tumor Growth Inhibition (%)” value is recorded as 53%.
`COc1cc(C2CC(=O)Nc3n[nH]cc32)ccc1COc1ccc(C(F)F)cc1C(F)(F)F` (single isomer, unassigned; (-)) [Example 196, (−)-4-(4-{[4-(difluoromethyl)-2-(trifluoromethyl)phenoxy]methyl}-3-methoxyphenyl)-2H,4H,5H,6H,7H-pyrazolo[3,4-b]pyridin-6-one]: at full length ERRα, the IC50 is not above 316 nM. Moreover, in the test with B16F10 melanoma, the “Tumor Volume (mm^3) Day 13” value stood at 755 ± 135 mm^3 and the “Tumor Growth Inhibition (%)” value was found to be 60%.
Take `COc1cc(C2CC(=O)Nc3n[nH]cc32)ccc1OCc1ccc(CCO)cc1C(F)(F)F` (stereo not shown) [Example 155, 4-(4-{[4-(2-hydroxyethyl)-2-(trifluoromethyl)phenyl]methoxy}-3-methoxyphenyl)-2H,4H,5H,6H, 7H-pyrazolo[3,4-b]pyridin-6-one]: in test [1], the “mean pIC50” value is reported as not below 8. The IC50 at full length ERRα is not above 316 nM.
For `COc1cc(C2CC(=O)Nc3n[nH]nc32)ccc1OCc1ccc(CCO)cc1C(F)(F)F` (stereo not shown) [Example 157, 7-(4-{[4-(2-hydroxyethyl)-2-(trifluoromethyl)phenyl]methoxy}-3-methoxyphenyl)-2H,4H,5H,6H, 7H-[1,2,3]triazolo[4,5-b]pyridin-5-one], in that order: not below 8 and not above 316 nM.
Turning to `COc1cc(C2CC(=O)Nc3n[nH]cc32)ccc1OCc1ccc(C=O)cc1C(F)(F)F` (stereo not shown) [Example 159, 4-[(2-methoxy-4-{6-oxo-2H,4H,5H,6H,7H-pyrazolo[3,4-b]pyridin-4-yl}phenoxy)methyl]-3-(trifluoromethyl)benzaldehyde], the IC50 in test [1] (read-out: mean pIC50 (converted)) was 10 to 100 nM; on full length ERRα it was not above 316 nM.
As for `COc1cc(C2CC(=S)Nc3n[nH]cc32)ccc1OCc1ccccc1C(F)(F)F` (stereo not shown) [Example 166, 4-(3-methoxy-4-{[2-(trifluoromethyl)phenyl]methoxy}phenyl)-2H,4H,5H,6H,7H-pyrazolo[3,4-b]pyridine-6-thione], in test [1], the “mean pIC50” value is reported as not below 8. The IC50 on full length ERRα is not above 316 nM.
For `COc1cc(-c2cc(=O)[nH]c3n[nH]cc23)ccc1OCc1ccccc1C(F)(F)F` [Example 169, 4-(3-methoxy-4-{[2-(trifluoromethyl)phenyl]methoxy}phenyl)-2H,6H,7H-pyrazolo[3,4-b]pyridin-6-one], in that order: not below 8 and not above 316 nM.
For `COc1ccc(COc2ccc(-c3cc(=O)[nH]c4n[nH]cc34)cc2OC)c(C(F)(F)F)c1` [Example 170, 4-(3-methoxy-4-{[4-methoxy-2-(trifluoromethyl)phenyl]methoxy}phenyl)-2H,6H, 7H-pyrazolo[3,4-b]pyridin-6-one], in that order: not below 8 and not above 316 nM.
For `COc1cc(-c2cc(=O)[nH]c3n[nH]cc23)ccc1OCc1ccc(C(C)=O)cc1C(F)(F)F` [Example 174, 4-(4-{[4-acetyl-2-(trifluoromethyl)phenyl]methoxy}-3-methoxyphenyl)-2H,6H, 7H-pyrazolo[3,4-b]pyridin-6-one], in that order: not below 8 and not above 316 nM.
Regarding `CCc1ccc(COc2ccc(-c3cc(=O)[nH]c4n[nH]cc34)cc2OC)c(C(F)(F)F)c1` [Example 175, 4-(4-{[4-ethyl-2-(trifluoromethyl)phenyl]methoxy}-3-methoxyphenyl)-2H,6H, 7H-pyrazolo[3,4-b]pyridin-6-one], the “mean pIC50” value in test [1] is not below 8. On full length ERRα, the IC50 was not above 316 nM.
For `COc1cc(-c2cc(=O)[nH]c3n[nH]cc23)ccc1OCc1ccc(CCO)cc1C(F)(F)F` [Example 176, 4-(4-{[4-(2-hydroxyethyl)-2-(trifluoromethyl)phenyl]methoxy}-3-methoxyphenyl)-2H, 6H, 7H-pyrazolo[3,4-b]pyridin-6-one], in that order: not below 8 and not above 316 nM.
For `COc1cc(-c2cc(=O)[nH]c3n[nH]cc23)ccc1OCc1cccc(OC)c1C(F)(F)F` [Example 177, 4-(3-methoxy-4-{[3-methoxy-2-(trifluoromethyl)phenyl]methoxy}phenyl)-2H, 6H, 7H-pyrazolo[3,4-b]pyridin-6-one], in that order: not below 8 and not above 316 nM.
`COc1ccc(C(F)(F)F)c(COc2ccc(-c3cc(=O)[nH]c4n[nH]cc34)cc2OC)c1` [Example 178, 4-(3-methoxy-4-{[5-methoxy-2-(trifluoromethyl)phenyl]methoxy}phenyl)-2H,6H,7H-pyrazolo[3,4-b]pyridin-6-one]: the “mean pIC50” value in test [1] is given as not below 8. In addition, the IC50 at full length ERRα was not above 316 nM.
For `COc1cc(-c2cc(=O)[nH]c3n[nH]cc23)ccc1OCc1ccc(F)cc1C(F)(F)F` [Example 179, 4-(4-{[4-fluoro-2-(trifluoromethyl)phenyl]methoxy}-3-methoxyphenyl)-2H,6H, 7H-pyrazolo[3,4-b]pyridin-6-one], in that order: not below 8 and not above 316 nM.

These data come from US12527774B2, “Estrogen-related receptor alpha modulators” (LEAD PHARMA HOLDING B.V., priority 2019, dated 2026).
